From US20240150290A1, “HETEROCYCLIC P2Y14 RECEPTOR ANTAGONISTS” (priority 2021, published 2024)
Like-named read-outs stand apart in the source and are kept apart here. Marks after values point to notes of the source that are not given here.

Key:
[1] = molecular target: T1, hP2Y14R (Homo sapiens, UniProt Q15391); assay: Inhibition of fluorescent antagonist binding in whole hP2Y14R-expressing CHO cells (flow cytometry)
T1 construct: expressed in transfected cells; host or cells: CHO cells
T1 sequence (Q15391 1-338): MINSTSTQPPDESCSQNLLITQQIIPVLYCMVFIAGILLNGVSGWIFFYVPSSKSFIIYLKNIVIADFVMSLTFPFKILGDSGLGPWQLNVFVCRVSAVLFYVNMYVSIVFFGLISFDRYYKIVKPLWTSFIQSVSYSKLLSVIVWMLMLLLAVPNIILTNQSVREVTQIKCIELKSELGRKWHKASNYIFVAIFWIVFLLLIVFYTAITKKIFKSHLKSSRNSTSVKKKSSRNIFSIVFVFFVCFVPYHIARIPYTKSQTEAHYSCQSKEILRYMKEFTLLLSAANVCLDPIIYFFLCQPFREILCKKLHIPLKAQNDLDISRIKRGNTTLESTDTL

[2] = molecular target: T2, mP2Y14R (Mus musculus, UniProt Q9ESG6); assay: cell-based; details: read-out: mP2Y14R, IC50; Table 6; whole mP2Y14R-HEK cells, 200 nM of 3, mean ± SEM, n = 3-6
T2 sequence (Q9ESG6 1-338): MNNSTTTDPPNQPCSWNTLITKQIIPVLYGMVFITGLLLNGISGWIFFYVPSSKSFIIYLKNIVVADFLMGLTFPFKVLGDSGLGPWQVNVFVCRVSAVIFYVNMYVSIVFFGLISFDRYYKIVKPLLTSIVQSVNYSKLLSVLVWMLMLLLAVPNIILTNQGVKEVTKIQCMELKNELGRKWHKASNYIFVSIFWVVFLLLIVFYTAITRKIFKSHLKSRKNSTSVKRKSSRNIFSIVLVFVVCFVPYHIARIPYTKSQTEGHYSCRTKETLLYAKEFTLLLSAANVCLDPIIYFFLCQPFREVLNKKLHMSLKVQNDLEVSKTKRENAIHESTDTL
Excerpt: Desirably, receptor affinity is maintained across species, facilitating performance in in vivo preclinical testing in small animals, with the mouse being the most commonly used species in initial evaluation.

[3] = molecular target: T3, CYP1A2 (Homo sapiens, UniProt P05177); assay: CYP1A2 inhibition; assay type: in vitro ADME; details: Table 7
T3 sequence (P05177 1-516): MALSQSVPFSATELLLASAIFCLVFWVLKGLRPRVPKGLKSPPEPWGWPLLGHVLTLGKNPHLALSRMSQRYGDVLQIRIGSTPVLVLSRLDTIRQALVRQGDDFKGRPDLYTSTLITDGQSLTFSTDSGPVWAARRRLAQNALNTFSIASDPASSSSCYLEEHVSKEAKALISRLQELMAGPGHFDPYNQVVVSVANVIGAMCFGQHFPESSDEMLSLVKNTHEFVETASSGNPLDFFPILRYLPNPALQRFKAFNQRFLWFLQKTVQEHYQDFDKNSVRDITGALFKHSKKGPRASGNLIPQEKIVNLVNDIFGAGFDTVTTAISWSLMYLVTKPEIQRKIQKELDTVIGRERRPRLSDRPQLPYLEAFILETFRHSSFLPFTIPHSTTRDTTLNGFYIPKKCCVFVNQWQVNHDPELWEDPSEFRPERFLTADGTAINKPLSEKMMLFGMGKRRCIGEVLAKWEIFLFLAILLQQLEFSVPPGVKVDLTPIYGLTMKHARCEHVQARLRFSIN

[4] = molecular target: CYP2C19 (Homo sapiens, UniProt P33261); assay: CYP2C19 inhibition; assay type: in vitro ADME; details: Table 7
CYP2C19, sequence (P33261 whole entry): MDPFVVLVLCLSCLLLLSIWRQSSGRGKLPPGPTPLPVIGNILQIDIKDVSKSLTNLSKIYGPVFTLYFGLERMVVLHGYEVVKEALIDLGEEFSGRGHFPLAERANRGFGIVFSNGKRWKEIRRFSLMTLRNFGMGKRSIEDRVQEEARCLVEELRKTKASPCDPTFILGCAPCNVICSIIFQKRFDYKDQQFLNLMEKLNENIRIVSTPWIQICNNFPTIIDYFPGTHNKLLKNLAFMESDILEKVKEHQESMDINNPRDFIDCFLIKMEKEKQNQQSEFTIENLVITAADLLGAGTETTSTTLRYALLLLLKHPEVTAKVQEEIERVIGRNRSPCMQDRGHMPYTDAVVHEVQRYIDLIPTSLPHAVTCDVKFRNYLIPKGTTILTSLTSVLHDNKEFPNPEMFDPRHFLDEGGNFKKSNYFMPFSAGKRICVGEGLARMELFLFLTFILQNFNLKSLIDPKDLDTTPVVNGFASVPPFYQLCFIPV

[5] = molecular target: CYP2D6 (Homo sapiens, UniProt P10635); assay: CYP2D6 inhibition; assay type: in vitro ADME; details: Table 7
CYP2D6, sequence (P10635 whole entry): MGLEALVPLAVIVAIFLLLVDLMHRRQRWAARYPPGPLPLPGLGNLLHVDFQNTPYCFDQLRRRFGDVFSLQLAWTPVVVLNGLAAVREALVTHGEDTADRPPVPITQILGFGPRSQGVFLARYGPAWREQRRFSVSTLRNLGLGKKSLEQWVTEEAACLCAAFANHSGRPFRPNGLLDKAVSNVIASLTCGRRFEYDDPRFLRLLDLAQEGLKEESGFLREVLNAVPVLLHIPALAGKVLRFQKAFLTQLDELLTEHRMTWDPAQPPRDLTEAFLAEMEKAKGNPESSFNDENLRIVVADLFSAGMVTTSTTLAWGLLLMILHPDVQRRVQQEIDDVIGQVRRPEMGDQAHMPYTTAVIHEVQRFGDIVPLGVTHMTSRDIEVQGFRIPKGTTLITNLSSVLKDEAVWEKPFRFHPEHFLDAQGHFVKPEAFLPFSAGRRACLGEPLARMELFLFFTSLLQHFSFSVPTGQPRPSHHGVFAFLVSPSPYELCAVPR

[6] = molecular target: CYP3A4 (Homo sapiens, UniProt P08684); assay: CYP3A4 inhibition; assay type: in vitro ADME; details: Table 7
CYP3A4, sequence (P08684 whole entry): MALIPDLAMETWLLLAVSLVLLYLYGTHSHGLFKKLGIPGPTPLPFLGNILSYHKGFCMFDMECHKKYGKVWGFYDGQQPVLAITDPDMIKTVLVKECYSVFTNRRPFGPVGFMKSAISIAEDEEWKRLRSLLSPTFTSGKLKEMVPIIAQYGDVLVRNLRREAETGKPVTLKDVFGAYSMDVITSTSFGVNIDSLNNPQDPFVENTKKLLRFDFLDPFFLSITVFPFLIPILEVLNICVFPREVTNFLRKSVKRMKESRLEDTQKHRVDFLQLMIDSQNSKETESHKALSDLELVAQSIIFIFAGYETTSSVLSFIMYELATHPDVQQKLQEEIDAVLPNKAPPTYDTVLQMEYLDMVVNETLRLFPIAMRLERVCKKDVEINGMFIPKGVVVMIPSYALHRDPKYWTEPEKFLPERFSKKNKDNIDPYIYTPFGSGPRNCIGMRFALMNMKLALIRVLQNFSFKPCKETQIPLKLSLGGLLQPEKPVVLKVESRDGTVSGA

[7] = Microsomal stability, rat; assay type: in vitro ADME; details: Table 7
[8] = Microsomal stability, mouse; assay type: in vitro ADME; details: Table 7
[9] = molecular target: hERG (Homo sapiens, UniProt Q12809); assay: hERG inhibition, fluorescent method; assay type: binding; details: Table 7
hERG, sequence (Q12809 whole entry): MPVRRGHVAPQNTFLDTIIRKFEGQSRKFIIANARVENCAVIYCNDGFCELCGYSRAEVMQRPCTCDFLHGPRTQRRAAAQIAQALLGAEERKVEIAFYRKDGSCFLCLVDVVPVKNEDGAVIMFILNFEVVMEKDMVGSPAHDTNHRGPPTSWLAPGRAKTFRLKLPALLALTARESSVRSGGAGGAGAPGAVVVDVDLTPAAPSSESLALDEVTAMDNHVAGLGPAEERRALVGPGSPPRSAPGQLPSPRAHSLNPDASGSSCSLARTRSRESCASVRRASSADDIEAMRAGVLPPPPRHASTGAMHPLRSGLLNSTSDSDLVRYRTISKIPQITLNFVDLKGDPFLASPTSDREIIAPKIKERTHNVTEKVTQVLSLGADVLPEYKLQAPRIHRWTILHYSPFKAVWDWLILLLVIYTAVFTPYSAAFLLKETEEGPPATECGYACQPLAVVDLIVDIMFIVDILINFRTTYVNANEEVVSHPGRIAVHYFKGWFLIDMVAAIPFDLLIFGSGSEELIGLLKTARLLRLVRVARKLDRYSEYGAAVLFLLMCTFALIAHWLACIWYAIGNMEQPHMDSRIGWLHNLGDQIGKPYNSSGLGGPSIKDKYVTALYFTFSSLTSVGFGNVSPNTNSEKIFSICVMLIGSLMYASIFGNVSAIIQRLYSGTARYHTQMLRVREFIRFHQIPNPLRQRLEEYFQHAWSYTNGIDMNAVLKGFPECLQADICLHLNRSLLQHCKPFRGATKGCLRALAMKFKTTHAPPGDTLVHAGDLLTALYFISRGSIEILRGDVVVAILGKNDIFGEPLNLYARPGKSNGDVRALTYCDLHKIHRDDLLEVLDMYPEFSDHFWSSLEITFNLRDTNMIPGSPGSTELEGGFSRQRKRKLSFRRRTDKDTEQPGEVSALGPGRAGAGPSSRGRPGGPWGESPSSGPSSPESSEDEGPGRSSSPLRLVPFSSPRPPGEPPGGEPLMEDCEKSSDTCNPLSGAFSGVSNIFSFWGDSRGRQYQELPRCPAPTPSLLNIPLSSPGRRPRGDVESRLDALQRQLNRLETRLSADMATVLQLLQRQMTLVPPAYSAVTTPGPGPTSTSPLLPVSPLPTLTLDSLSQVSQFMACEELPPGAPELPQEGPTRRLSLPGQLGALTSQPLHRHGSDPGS

[10] = In vivo half-life by administration mode (Table 7)
[11] = Plasma protein binding, mouse; assay type: in vitro ADME
[12] = Plasma protein binding, rat; assay type: in vitro ADME
[13] = Plasma protein binding, human; assay type: in vitro ADME
[14] = molecular target: CYP2C9 (Homo sapiens, UniProt P11712); assay: CYP2C9 inhibition
CYP2C9, sequence (P11712 whole entry): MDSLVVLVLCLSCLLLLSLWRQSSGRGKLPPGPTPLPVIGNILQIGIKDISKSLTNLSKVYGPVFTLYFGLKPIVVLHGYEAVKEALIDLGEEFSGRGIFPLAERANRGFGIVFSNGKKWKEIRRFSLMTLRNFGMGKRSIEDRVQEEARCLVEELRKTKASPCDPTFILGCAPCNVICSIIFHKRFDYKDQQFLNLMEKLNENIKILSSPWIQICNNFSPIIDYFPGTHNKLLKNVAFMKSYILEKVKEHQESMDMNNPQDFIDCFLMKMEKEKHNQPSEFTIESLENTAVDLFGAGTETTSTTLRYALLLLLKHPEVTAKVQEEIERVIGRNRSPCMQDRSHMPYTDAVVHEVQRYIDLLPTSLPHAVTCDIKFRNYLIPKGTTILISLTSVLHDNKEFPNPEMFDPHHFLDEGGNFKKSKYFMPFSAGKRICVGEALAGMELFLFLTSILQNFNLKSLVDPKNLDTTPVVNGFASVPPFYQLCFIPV

[15] = Plasma stability, rat; details: Table 7
[16] = Plasma stability, mouse; details: Table 7
[17] = Microsomal stability, human
[18] = Stability in simulated gastric fluid; details: Table 7
[19] = Stability in simulated intestinal fluid; details: Table 7
[20] = tested on: PLE; assay: Esterase cleavage of prodrugs in the presence of PLE; assay type: in vitro ADME; details: 37° C.; for Percent cleavage at 72 h: pH 7.3, PLE
[21] = tested on: allergen-induced airway inflammation; assay: Ovalbumin/Aspergillus mouse asthma model (BALF leukocytes); details: 20 μmol/kg; for eosinophil counts in the BALF: i.p. prior to allergen challenge, two days post-challenge
[22] = molecular target: T1, hP2Y14R; details: Table 2; data from Jung et al. and Mufti et al.; cited from earlier work
[23] = Table 7, Jung et al. 2020, cited from earlier work
[24] = human; Table 7; Jung et al. 2020; cited from earlier work
[25] = mouse; Table 7; Jung et al. 2020; cited from earlier work
[26] = human; Table 7; Jung et al. 2020; cited from earlier work; remark: listed apart in the source
[27] = mouse; Table 7; Jung et al. 2020; cited from earlier work; remark: listed apart in the source
[28] = Aqueous solubility, pION method
[29] = molecular target: T2, mP2Y14R; parameters: expressed in transfected cells; details: Table 2; data from Jung et al. and Mufti et al.; cited from earlier work
[30] = HPLC-based lipophilicity (Log D7.4)
[31] = molecular target: hERG ion channel (Homo sapiens, UniProt Q12809); assay: hERG ion channel block, patch clamp assay
hERG ion channel, sequence (Q12809 whole entry): as the sequence (Q12809 whole entry) above

[32] = tested on: CCI-induced mechano-allodynia; assay: Chronic constriction injury (CCI) mouse model of neuropathic pain; details: 10 μmol/kg, i.p.
[33] = Table 6, fluorescent hP2Y14R antagonist (3), read-out: hP2Y14R, IC50
[34] = first value of the cell (mode not given; by the column of 4: i.p.)
[35] = second value of the cell (mode not given; by the column of 4: i.v., 0.5 mg/kg)

SMILES	IC50 [1, 33]	IC50 [2]	IC50 [3]	IC50 [4]	IC50 [5]	IC50 [6]	Microsomal stability (t1/2, min) [7]	Microsomal stability (t1/2, min) [8]	IC50 [9]	t1/2 (h), administration mode [10, 34]	t1/2 (h), administration mode [10, 35]	Mouse, % bound (±SD) [11]	Rat, % bound (±SD) [12]	Human, % bound (±SD) [13]	IC50 [14]	Plasma stability (% remaining at 120 min) [15]	Plasma stability (% remaining at 120 min) [16]	Simulated intestinal fluid (% remaining at 120 min) [19]	Percent cleavage at 72 h [20]	eosinophil counts in the BALF [21]	further results
O=C(O)c1cc(-c2ccc([C@@H]3C[C@@H]4C[C@H]3NC4=O)cc2)c2ccc(-c3ccc(C(F)(F)F)cc3)cc2c1 [Compound 121, 4-(4-((1R,4R,6S)-3-Oxo-2-azabicyclo[2.2.1]heptan-6-yl)phenyl)-7-(4-(trifluoromethyl)phenyl)-2-naphthoic acid]	37.3 ± 6 nM	42.9 ± 7 nM	> 30000 nM	> 30000 nM	> 30000 nM	> 30000 nM	89.4 min	> 1000 min	> 30000 nM	4.59 h	2.11 h	99.74 ± 0.04%	96.18 ± 0.32%	98.89 ± 0.50%	> 30000 nM	74.7%	74.1%	100%	–	–	half-life ([17]; liver microsomes): 14.2 h; Simulated gastric fluid (% remaining at 120 min) [18]: 59.3%
CC(=O)N1CCC(c2ccc(-c3cc(C(=O)OCC(=O)N(C)C)cc4cc(-c5ccc(C(F)(F)F)cc5)ccc34)cc2)CC1 [Compound 37c, 2-(Dimethylamino)-2-oxoethyl 4-(4-(1-acetylpiperidin-4-yl)phenyl)-7-(4-(trifluoromethyl)phenyl)-2-naphthoate]	–	–	–	–	–	–	–	–	–	–	–	–	–	–	–	–	–	–	27.2 ± 0.3%	significantly reduced eosinophils to a greater extent than the parent antagonists	–
CN(C)C(=O)COC(=O)c1cc(-c2ccc(C3CCNCC3)cc2)cc(-n2cc(-c3ccc(C(F)(F)F)cc3)nn2)c1 [Compound 37a, 2-(Dimethylamino)-2-oxoethyl 4′-(piperidin-4-yl)-5-(4-(4-(trifluoromethyl)phenyl)-1H-1,2,3-triazol-1-yl)-[1,1′-biphenyl]-3-carboxylate]	–	–	–	–	–	–	–	–	–	–	–	–	–	–	–	–	–	–	–	–	t1/2 (min, mean ± SEM) for esterase cleavage ([20]; pH 7.3, aqueous medium, PLE): most rapidly cleaved; lymphocyte count in the BALF ([21]; i.p.): trended higher than in vehicle control
O=C(O)c1cc(-c2ccc(C34CCN(CC3)CC4)cc2)c2ccc(-c3ccc(C(F)(F)F)cc3)cc2c1 [Compound 4]	–	–	–	–	–	–	–	–	–	–	–	–	–	–	–	–	–	–	–	–	IC50 ([1]; Example 5 table, whole cell fluorescent binding assay, read-out: IC50): 20 ± 4.4 nM; IC50 ([1]; Table 2, whole hP2Y14R-CHO cells, 20 nM fluorescent antagonist 3, mean+SEM, n = 3-6, read-out: IC50): 20 ± 4.4 nM; IC50 [22]: 169 ± 42 nM; aqueous solubility (pH 4.0, μg/mL) ([23]; pH 4.0): 14.3 ± 0.5 μg/mL; aqueous solubility (pH 7.4, μg/mL) ([23]; pH 7.4): 0.44 ± 0.06 μg/mL; Plasma stability (% remaining at 120 min) [24]: 100%; Plasma stability (% remaining at 120 min) [25]: 100 (m) %; Microsomal stability (t1/2, min) [26]: 8 >240 (h) min; Microsomal stability (t1/2, min) [27]: 67.2 min; Solubility (ug/mL) pH 4 [28]: 1.50 ± 0.04 ug/mL; Solubility (ug/mL) pH 7.4 [28]: 0.55 ± 0.02 ug/mL; IC50 [29]: 384 ± 88 nM; Log D7.4 ([30]; calculated from retention factor difference between ligands and 1 (k = 3.41)): 4.18 ± 0.85^f
CN(C)C(=O)COC(=O)c1cc(-c2ccc(-c3cc(CO)on3)cc2)c2ccc(-c3ccc(C(F)(F)F)cc3)cc2c1 [Compound 37b, 2-(Dimethylamino)-2-oxoethyl 4-(4-(5-(hydroxymethyl)isoxazol-3-yl)phenyl)-7-(4-(trifluoromethyl)phenyl)-2-naphthoate]	–	–	–	–	–	–	–	–	–	–	–	–	–	–	–	–	–	–	32.6 ± 0.9%	significantly reduced eosinophils to a greater extent than the parent antagonists	–
O=C(O)c1cc(-c2ccc([C@H]3C[C@H]4C[C@@H]3CN4)cc2)c2ccc(-c3ccc(C(F)(F)F)cc3)cc2c1 [Compound 114, 4-(4-((1S,4S,5S)-2-Azabicyclo[2.2.1]heptan-5-yl)phenyl)-7-(4-(trifluoromethyl)phenyl)-2-naphthoic acid]	3.11 ± 0.62 nM	33.9 ± 4.6 nM	> 30000 nM	> 30000 nM	> 30000 nM	> 30000 nM	91.0 min	243 min	> 30000 nM	8.94 h	7.24 h	99.76 ± 0.03%	99.79 ± 0.02%	87.98 ± 10.29%	> 30000 nM	82.8%	100%	99.1%	–	–	Microsomal stability (t1/2, min) ([17]; Table 7): 280 (h) min; Solubility (ug/mL) pH 4 [28]: 1.22 ± 0.05 ug/mL; Solubility (ug/mL) pH 7.4 [28]: 0.77 ± 0.21 ug/mL; chromatographic logD ([30]; pH 7.4): 1.92 ± 0.09; Simulated gastric fluid (% remaining at 120 min) ([18]; aqueous acid stability determined by NMR): 100^e %; IC50 [31]: > 30000 nM; side effects [32]: No obvious side effects were observed; reversal of mechano-allodynia (figure legend) ([32]; day 7 post-injury): reversed the established mechano-allodynia
